Read-outs that look alike come from different tables or passages of the source.
Legend:
Format in all cases: biochemical
[1] = target: T1, CHK1 (Homo sapiens, UniProt O14757); assay: Kinase screen: CHK1 assay
T1 sequence (O14757 1-476): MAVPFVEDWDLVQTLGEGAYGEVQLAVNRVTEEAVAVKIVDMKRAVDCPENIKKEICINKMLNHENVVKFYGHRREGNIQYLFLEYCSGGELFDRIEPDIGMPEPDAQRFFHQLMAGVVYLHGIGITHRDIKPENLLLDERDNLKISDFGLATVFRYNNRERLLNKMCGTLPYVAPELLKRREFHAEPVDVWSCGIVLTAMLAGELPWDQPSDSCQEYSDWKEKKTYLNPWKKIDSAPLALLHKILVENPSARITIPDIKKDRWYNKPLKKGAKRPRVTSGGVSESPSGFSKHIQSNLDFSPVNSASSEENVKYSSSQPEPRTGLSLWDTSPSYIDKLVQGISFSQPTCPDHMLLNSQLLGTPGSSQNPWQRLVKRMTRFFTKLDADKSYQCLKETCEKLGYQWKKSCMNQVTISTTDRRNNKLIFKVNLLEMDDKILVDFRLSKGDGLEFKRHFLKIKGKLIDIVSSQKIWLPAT
Experimental: (§1) Generally, the same procedure was used for all assays. Since the total assay volume was 25.5 microliters, 0.5 microliters of inhibitors at 51× assay concentration were added to the plates before any other addition.
(§2) The basic procedure was to add 0.5 microliters inhibitor/control in DMSO to plate. Fifteen microliters of enzyme/substrate/buffer mix were added and incubated for 5 min. Ten microliters MgATP at the relevant concentration were added and incubated for 30 min. The assay was stopped by adding 5 microliters of 3% orthophosphoric acid. The assay was transferred to a p81 filter plate and read in a scintillation counter of 30 sec/well. Note that this assay procedure was not followed for MKK1, which instead involved a two-step assay, and PKC alpha, which required the addition of lipid vesicles.
CHK1 assay: CHK1 (5-20 mU diluted in 20 mM MOPS pH 7.5, 1 mM EDTA, 0.1% b-mercaptoethanol, 0.01% Brij-35, 5% glycerol, 1 mg/ml BSA) was assayed against CHKtide substrate peptide ([…]) (SEQ ID NO: 12) in a final volume of 25.5 μl containing 8 mM MOPS pH 7.0, 0.2 mM EDTA, 200 μM CHKtide, 10 mM magnesium acetate and 0.02 mM [33P-g-ATP] (50-1000 cpm/pmole) and incubated for 30 min at room temperature Assays were stopped by addition of 5 μl of 0.5 M (3%) orthophosphoric acid and then harvested onto P81 Unifilter plates with a wash buffer of 50 mM orthophosphoric acid.

[2] = target: MSK1 (Homo sapiens, UniProt O75582); assay: Kinase screen: MSK1 assay
MSK1, sequence (O75582 whole entry, species assumed): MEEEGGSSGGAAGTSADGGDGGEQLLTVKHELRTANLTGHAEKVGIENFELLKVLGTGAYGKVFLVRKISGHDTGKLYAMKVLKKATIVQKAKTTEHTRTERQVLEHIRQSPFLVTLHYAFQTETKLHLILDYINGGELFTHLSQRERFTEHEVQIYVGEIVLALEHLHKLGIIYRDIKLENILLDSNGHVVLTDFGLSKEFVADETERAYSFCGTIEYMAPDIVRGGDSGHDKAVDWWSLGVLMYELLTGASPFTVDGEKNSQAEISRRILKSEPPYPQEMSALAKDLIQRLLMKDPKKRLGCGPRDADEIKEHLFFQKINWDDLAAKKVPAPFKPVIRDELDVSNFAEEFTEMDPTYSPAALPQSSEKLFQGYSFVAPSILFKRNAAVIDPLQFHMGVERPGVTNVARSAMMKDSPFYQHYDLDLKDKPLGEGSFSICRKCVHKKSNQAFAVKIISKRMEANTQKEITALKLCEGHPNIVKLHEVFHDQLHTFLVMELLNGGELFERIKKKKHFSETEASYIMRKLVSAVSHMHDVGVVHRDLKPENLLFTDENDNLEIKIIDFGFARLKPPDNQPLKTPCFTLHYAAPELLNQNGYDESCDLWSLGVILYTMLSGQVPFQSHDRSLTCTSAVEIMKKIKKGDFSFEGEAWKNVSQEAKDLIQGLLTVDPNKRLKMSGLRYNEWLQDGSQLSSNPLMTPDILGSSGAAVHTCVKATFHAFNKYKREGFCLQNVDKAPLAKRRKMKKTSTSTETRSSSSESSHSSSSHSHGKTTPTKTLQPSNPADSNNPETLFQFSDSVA
Experimental: as §1, §2
MSK1 assay: MSK1 (5-20 mU diluted in 20 mM MOPS pH 7.5, 1 mM EDTA, 0.01% Brij35, 0.1% b-mercaptoethanol, 1 mg/ml BSA) was assayed against a modified Crosstide peptide […] (SEQ ID NO: 4) in a final volume of 25.5 μl containing 8 mM MOPS pH7.0, 0.2 mM EDTA, 30 μM substrate peptide, 10 mM magnesium acetate and 0.02 mM [33P-g-ATP] (50-1000 cpm/pmole) and incubated for 30 min at room temperature Assays were stopped by addition of 5 μl of 0.5 M (3%) orthophosphoric acid and then harvested onto P81 Unifilter plates with a wash buffer of 50 mM orthophosphoric acid.

[3] = target: T2, EPH-B3 (Homo sapiens, UniProt P54753); assay: Kinase screen: EPH-B3 assay; conditions: 10 micromolar compound; for remaining activity at 10 µM: read-out: mean activity remaining (as a percentage of the original activity), EPH-B3
T2 sequence (P54753 34-998): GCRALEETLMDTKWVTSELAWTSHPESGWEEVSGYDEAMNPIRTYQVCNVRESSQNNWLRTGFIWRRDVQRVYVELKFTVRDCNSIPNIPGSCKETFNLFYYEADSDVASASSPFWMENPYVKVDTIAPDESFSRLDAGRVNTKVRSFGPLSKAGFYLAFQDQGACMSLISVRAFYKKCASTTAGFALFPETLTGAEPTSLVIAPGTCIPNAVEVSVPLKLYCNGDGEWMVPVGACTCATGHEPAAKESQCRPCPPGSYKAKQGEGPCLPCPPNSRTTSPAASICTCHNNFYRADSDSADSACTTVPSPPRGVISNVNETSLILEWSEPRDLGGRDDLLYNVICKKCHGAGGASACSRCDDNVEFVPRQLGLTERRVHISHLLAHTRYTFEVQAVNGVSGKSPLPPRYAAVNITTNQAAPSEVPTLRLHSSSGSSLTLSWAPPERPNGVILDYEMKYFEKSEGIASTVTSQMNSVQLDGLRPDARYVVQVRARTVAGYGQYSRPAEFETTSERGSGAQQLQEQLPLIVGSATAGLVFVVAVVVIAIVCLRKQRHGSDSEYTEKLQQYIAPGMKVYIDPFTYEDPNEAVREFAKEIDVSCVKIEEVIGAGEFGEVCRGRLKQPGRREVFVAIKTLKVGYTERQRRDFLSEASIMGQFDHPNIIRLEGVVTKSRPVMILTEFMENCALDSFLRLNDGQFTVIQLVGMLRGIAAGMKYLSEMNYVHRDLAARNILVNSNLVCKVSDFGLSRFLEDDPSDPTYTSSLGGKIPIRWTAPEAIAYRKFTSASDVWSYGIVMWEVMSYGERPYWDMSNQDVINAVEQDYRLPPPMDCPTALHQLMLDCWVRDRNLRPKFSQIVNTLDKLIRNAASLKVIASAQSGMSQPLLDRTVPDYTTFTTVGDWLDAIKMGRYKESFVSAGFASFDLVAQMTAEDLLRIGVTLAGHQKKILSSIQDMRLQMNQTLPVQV
Experimental: as §1, §2
EPH-B3 assay: EPH-B3 (5-20 mU diluted in 50 mM Tris pH 7.5, 0.1 mM EGTA, 1 mg/ml BSA) was assayed against a substrate peptide (Poly Glut Tyr) in a final volume of 25.5 μl containing 50 mM Tris pH 7.5, 1 mg/ml substrate peptide, 10 mM magnesium acetate and 0.005 mM [33P-g-ATP] (50-1000 cpm/pmole) and incubated for 30 min at room temperature. Assays were stopped by addition of 5 μl of 0.5 M (3%) orthophosphoric acid and then harvested onto P81 Unifilter plates with a wash buffer of 50 mM orthophosphoric acid.

[4] = 10 micromolar compound, read-out: mean activity remaining (as a percentage of the original activity), CHK 1
[5] = 10 micromolar compound, read-out: mean activity remaining (as a percentage of the original activity), MSK1

Row | Compound | mean activity remaining (as a percentage of the original activity), CHK 1 ([1]; 10 micromolar compound) | mean activity remaining (as a percentage of the original activity), MSK1 ([2]; 10 micromolar compound) | mean activity remaining (as a percentage of the original activity), EPH-B3 [3] | remaining activity at 10 µM ([1]; CHK1, 10 μM, read-out: Mean Remaining Enzyme Activity (%)) | remaining activity at 10 µM ([2]; MSK1, 10 μM, read-out: Mean Remaining Enzyme Activity (%)) | remaining activity at 10 µM [1, 4] | remaining activity at 10 µM [2, 5] | remaining activity at 10 µM [3]
1 | CC(C)c1cnn2c(NCc3ccccc3F)cc(NCCCCCN)nc12 [ICEC-0232] | 87% | 42% | 88% |  |  |  |  | 
2 | CC(C)c1cnn2c(NCc3ccccc3)cc(NCCCCCCCN)nc12 [BS-181] |  |  |  | 80% | 65% |  |  | 
3 | CC[C@H](CO)Nc1cc(NCc2ccccc2)n2ncc(C(C)C)c2n1 [ICEC0067] |  |  |  |  |  | 100% | 86% | 79%
4 | C=C[C@H](CO)Nc1cc(NCc2ccccc2)n2ncc(C(C)C)c2n1 [ICEC0065] |  |  |  |  |  | 87% | 88% | 83%
5 | CC(C)c1cnn2c(NCc3ccccc3)cc(N[C@@H](CO)[C@H](O)CO)nc12 [ICEC0318, (3S)-3-(7-(Benzylamino)-3-isopropylpyrazolo[1,5-a]pyrimidin-5-ylamino)butane-1,2,4-triol] |  |  |  |  |  | 98% | 96% | 72%

— patent publication US8067424B2, “Selective inhibitors for cyclin-dependent kinases” (Emory University, priority 2007, dated 2011)
